Patent US20170190744A1 (Vicuron Pharmaceuticals, Inc., priority 2015, published 2017)
In brackets after ≈: the same amount, converted by molar mass.

Columns and labels:
[1] = test system: S. pneumoniae; assay: MIC of study organisms (NCCLS microdilution); assay type: cell-based; details: five pneumococcal organisms
Method: (§1) MICs were determined in MHB by standard NCCLS microdilution techniques. […] All MICs were performed at least in duplicate.

[2] = test system: S. aureus; assay: MIC of study organisms (NCCLS microdilution); assay type: cell-based; details: for MBC: Staphylococcus aureus
Method: as §1

[3] = in vivo
Method: Safety was evaluated by the collection and analysis of data on adverse events (AEs), clinical laboratory tests, physical examinations, vital signs, and ECGs.

[4] = test system: G 16440 E coli iperperm; assay: MIC (microbiological activity); assay type: cell-based; details: repeat determinations
[5] = test system: Gram-positive isolates, including MRSA; assay: Dalbavancin MIC of baseline Gram-positive pathogens (SSTI trial); assay type: cell-based; details: for Dalbavancin MIC, Miscellaneous Streptococcus and nontypeable strains: baseline isolates, MITT
Text: The most common pathogen was S. aureus.

[6] = test system: human hepatic microsomes; assay type: in vitro ADME
[7] = test system: S. aureus; assay: MIC of study organisms (NCCLS microdilution); assay type: cell-based
[8] = Plasma pharmacokinetics in thigh-infected neutropenic mice; details: 2.5-80 mg/kg intraperitoneal
Method: Neutropenia in this and all other studies was produced by injections of cyclophosphamide, 150 mg/kg 4 days prior to study, 100 mg/kg 1 day prior to study and 100 mg/kg every 48 h after start of infection until end of study. […] Doses of 2.5, 5, 10, 20, 40, and 80 mg/kg were studied. Drug was administered by intraperitoneal injection of 0.2 ml volume. Blood was removed from groups of three mice by retroorbital aspiration into heparinized capillary tubes at 0.5, 1, 2, 4, 6, 24, 48, 72, and 96 hours after dosing. […] AUC was calculated by the trapezoidal rule from mean concentrations.

[9] = Pharmacokinetics in hepatic impairment (VER001-12); assay type: in vivo, human; details: 1000 mg Day 1 and 500 mg Day 8, Mean (±SD)
Text: The study enrolled otherwise healthy subjects with mild, moderate, or severe hepatic impairment (Child-Pugh scores 5 to 6, 7 to 9, and 10 to 15, respectively) and matched control subjects with normal hepatic function.

[10] = Phase II SSTI trial: safety (adverse events); design: species or system human; details: in vivo
Method: Each patient who received at least one dose of study drug (ITT population) was evaluated for drug safety through monitoring of adverse events (AE), including abnormal clinical laboratory test results and vital signs. AE were rated by the investigator as to their severity (mild, moderate, severe, life-threatening), and by the relationship to the study drug (not related, unlikely related, possibly related, or probably related).

[11] = test system: methicillin-resistant S. aureus (MRSA); assay: Phase II SSTI trial: response in patients with MRSA (MITT); assay type: in vivo, human; details: MITT population
Method: The effectiveness of the three treatment regimens was determined by assessing the patients' clinical response and the documented or presumed microbiological responses. The primary efficacy endpoint was clinical response at the follow-up visit for the clinically evaluable population. Clinical response, for both EOT and FU visits, was categorized as success (cure or improvement) or failure (including indeterminate results). Patients classified as successes must not have received additional systemic antibacterial treatment for their infection. Failure was defined as persistence of one or more local or systemic signs and symptoms of SSTI such that treatment with new or additional systemic antibacterial agents was required for the SSTI.
Microbiological outcome, a secondary efficacy variable, was assessed in the subpopulation of patients who had microbiologically documented SSTI (i.e., at least one identified baseline pathogen). A microbiologic response was assessed for each Gram-positive pathogen identified at baseline (i.e., eradication, presumed eradication, persistence, presumed persistence). For patients for whom follow-up cultures were not performed, the microbiologic responses for baseline pathogens were presumed on the basis of the clinical response. Microbiologic response by patient at the EOT and FU visits was graded as success (i.e., all Gram-positive organisms eradicated or presumed eradicated) or failure (i.e., at least one Gram-positive organism persisted or presumed to have persisted, multiple pathogens with partial eradication). At both the EOT and FU visits, colonization and superinfection were assessed. At the FU visit, a patient's bacteriological response could also include recurrence.

[12] = test system: MRSA Staph. aureus 3817; assay: Staph. aureus murine septicaemia, ED50; assay type: in vivo; details: Staphylococcus aureus, sc, 10 min
[13] = both, human, in vivo
Method: Male and female subjects between ages 18 and 80 were eligible for enrollment. Subjects had to be within −10% to +50% of ideal body weight for their sex, height, and body frame.
The peak concentrations (Cmax) were obtained directly from the observed data. The area under the plasma concentration-time curve (AUC) were calculated using the linear trapezoidal rule.

[14] = Pharmacokinetics in renal impairment and ESRD (VER001-3, VER001-11, VER001-13)
Text: Clinical Study VER001-13 examined subjects with mild and moderate renal impairment and Clinical Study VER001-11 examined subjects with severe renal impairment and subjects with end-stage renal disease (ESRD). Matched control subjects were enrolled in all studies. […] Subjects with ESRD were dependent on dialysis through the course of the study (3 times weekly).

[15] = test system: 3797 S aureus clin. Isolate GISA; assay: MIC (microbiological activity); assay type: cell-based
[16] = test system: S. pneumoniae; assay: Murine thigh-infection model; assay type: in vivo, mice; details: for 1 Log Kill mg/kg/72 h / 2 Log Kill mg/kg/72 h: q 72 h regimen; for 1 log kill dose / 2 log kill dose: total dose over 6 days
Method: Each point represents the mean of 4 thighs. Five dose levels, ranging 16-fold were used.
Five different doses (two-fold increases) were used. Study against S. aureus utilized total dose (mg/kg/6 d) levels ranging from 30 to 480 mg/kg/6 d. […] Each point represents the mean of 4 thighs.
Each point represents the mean of four thighs.
Each point represents the mean value from 4 thighs. The static dose, and the doses associated with a 1 and 2 log kill were calculated from the parameters estimated by non-linear regression using the Hill equation.

[17] = test system: P450; assay: P450 induction after administration to rats; assay type: in vivo

CN[C@H]1C(=O)N[C@@H]2Cc3ccc(cc3)Oc3cc4cc(c3O[C@@H]3O[C@H](C(=O)O)[C@@H](O)[C@H](O)[C@H]3NC(=O)CCCCCCCCC(C)C)Oc3ccc(cc3Cl)[C@@H](O)[C@@H]3NC(=O)[C@H](NC(=O)[C@@H]4NC(=O)[C@@H](NC2=O)c2cc(cc(O)c2Cl)Oc2cc1ccc2O)c1ccc(O)c(c1)-c1c(O[C@H]2O[C@H](CO)[C@@H](O)[C@H](O)[C@@H]2O)cc(O)cc1[C@@H](C(=O)NCCCN(C)C)NC3=O [Dalbavancin]
MIC range [1]: 0.004 to 0.03 µg/mL
MBC ([2]; S. aureus strain 307109): 0.12 µg/mL
MBC ([2]; SA31005): 0.12 µg/mL
MIC range ([2]; six S. aureus isolates): 0.06 to 0.12 µg/mL
average difference of effect on QTc values versus vancomycin group ([3]; human): 7 ms
impact on heart rate, atrioventricular conduction or intra-ventricular conduction [3]: did not exhibit any impact
MIC [4]: 16 µg/mL (≈ 8.81 µM)
MICs against Gram-positive isolates, including MRSA (range) ([5]; baseline isolates of the SSTI trial): 0.016 to 0.25 mg/L
Dalbavancin MIC, Miscellaneous Streptococcus and nontypeable strains ([5]; Single dose Dalbavancin (1100 mg) arm): (0.016)
Dalbavancin MIC, Miscellaneous Streptococcus and nontypeable strains ([5]; Two-dose Dalbavancin (1000/500 mg) arm): (0.016)
effect on metabolism of marker substrates [6]: did not affect the metabolism of marker substrates
MBC relative to MIC ([7]; S. aureus, MBC higher than MIC): 2 to 4 fold
MBC ([7]; SA25923): 0.50 µg/mL
half-life [8]: 0.317 to 0.546 days
t1/2 ([9]; Mild Hepatic Impairment): 323 (27) h
t1/2 ([9]; Moderate Hepatic Impairment): 320 (24) h
t1/2 ([9]; Normal Hepatic Function): 321 (24) h
t1/2 ([9]; Severe Hepatic Impairment): 322 (68) h
premature discontinuation of treatment due to an AE [10]: No dalbavancin-treated patient discontinued treatment prematurely due to an AE
clinical success rate at FU in patients with MRSA ([11]; single-dose dalbavancin): 50%
rate of eradication for MRSA ([11]; single-dose dalbavancin): 50%
clinical success rate at FU in patients with MRSA ([11]; two-dose dalbavancin): 80%
rate of eradication for MRSA ([11]; two-dose dalbavancin): 80%
ED50 [12]: 0.7 mg/kg
AUC ([13]; 500 mg): 24376 ± 6615 µg·h/mL
AUC14 ([13]; 1000 mg): ~22000′ mg · h/L
AUC42 ([13]; 1000 mg): 23137 ± 3326 µg·h/mL
t1/2 ([14]; ESRD Postdialysis, VER001-11, 500 mg): 14.5 days
t1/2 ([14]; ESRD Predialysis, VER001-11, 500 mg): 15.7 days
t1/2 ([14]; Mild Renal Impairment, VER001-13, 1000 mg): 16.2 days
t1/2 ([14]; Moderate Renal Impairment, VER001-13, 1000 mg): 18 days
t1/2 ([14]; Normal Renal Function, VER001-2, 1120 mg): 6.21 days
t1/2 ([14]; Normal Renal Function, VER001-11, 500 mg): 13.9 days
t1/2 ([14]; Normal Renal Function, VER001-13, 1000 mg): 17.4 days
t1/2 ([14]; Severe Renal Impairment, VER001-11, 500 mg): 18.9 days
t1/2 ([14]; Severe Renal Impairment, VER001-11, 1000 mg): 19.5 days
increase in concentrations through the first week post-dose vs normal renal function ([14]; subjects with severe renal impairment (VER001-11)): 40%
MIC [15]: 2 µg/mL (≈ 1.1 µM)
1 Log Kill mg/kg/72 h ([16]; Mean ± SD of S. pneumoniae strains): 0.93 ± 0.24 mg/kg/72 h
24 h AUC/MIC values lower with every 72 h than every 24 h dosing ([16]; S. pneumoniae and S. aureus, static dose, 1 and 2 log kill): 1.3 to 2.4 fold
1 Log Kill mg/kg/72 h ([16]; SP1199, 6 days of therapy): 0.85 mg/kg/72 h
2 Log Kill mg/kg/72 h ([16]; SP1199, 6 days of therapy): 0.99 mg/kg/72 h
1 Log Kill mg/kg/72 h ([16]; SP1325, 6 days of therapy): 0.99 mg/kg/72 h
1 Log Kill mg/kg/72 h ([16]; SP1396, 6 days of therapy): 0.61 mg/kg/72 h
2 Log Kill mg/kg/72 h ([16]; SP1396, 6 days of therapy): 0.69 mg/kg/72 h
1 log kill dose ([16]; SP10813, q 12 h): 2.8 mg/kg
2 log kill dose ([16]; SP10813, q 12 h): 3.5 mg/kg
1 log kill dose ([16]; SP10813, q 24 h): 1.54 mg/kg
2 log kill dose ([16]; SP10813, q 24 h): 1.75 mg/kg
1 log kill dose ([16]; SP10813, q 72 h): 0.77 mg/kg
2 log kill dose ([16]; SP10813, q 72 h): 0.82 mg/kg
1 Log Kill mg/kg/72 h ([16]; SP10813, 6 days of therapy): 0.77 mg/kg/72 h
2 Log Kill mg/kg/72 h ([16]; SP10813, 6 days of therapy): 0.82 mg/kg/72 h
drop in cfu over the 6 day study ([16]; all strains): > 4 log10
less drug required against pneumococci than S. aureus, based upon 24 h AUC/MIC ([16]; every 24 h dosing): 12 to 23 fold
free drug 24 h AUC/MIC associated with a static effect ([16]; every 72 h dosing, 6 days): 7.2±4.5
free drug AUC/MIC over the 6 days of therapy required for efficacy ([16]; net static effect, 1 or 2 log kill): ~100
reduction in doses necessary for efficacy in presence of neutrophils ([16]; normal vs neutropenic mice, 24-hour dosing, not statistically significant): 1.7- to 2.1 fold
P450 induction [17]: did not induce any P450 activity
